Assay results from ChEMBL document CHEMBL1255477, “In vitro properties of BAL30072, a novel siderophore sulfactam with activity against multiresistant gram-negative bacilli” (Antimicrob Agents Chemother, 2010).
Values after ≈ are worked out from the molar mass of the structure shown. Active and inactive are the calls of the source. The rule behind the calls is not given here.

Key:
[1] = test system: Enterobacter cloacae; assay: Antimicrobial activity against Enterobacter cloacae S9369 assessed as highest concentration at which colonies reappeared; format: functional
[2] = Inhibition of beta-lactamase TEM-3
[3] = test system: Escherichia coli; assay: Antimicrobial activity against Escherichia coli W3110 assessed as highest concentration at which colonies reappeared; format: functional
[4] = Inhibition of Escherichia coli Penicillin-binding protein 1A
[5] = Inhibition of beta-lactamase VIM-1
[6] = test system: Pseudomonas aeruginosa; assay: Microbicidal activity against Pseudomonas aeruginosa HPA10586 selected after 8 times MIC compound exposure; format: functional
[7] = test system: Pseudomonas aeruginosa; assay: Antimicrobial activity against Pseudomonas aeruginosa HPA10586 assessed as log reduction in colony count within 6 hrs selected after 1 to 16 times MIC compound exposure; format: functional, organism-based
[8] = test system: Acinetobacter baumannii; assay: Microbicidal activity against Acinetobacter baumannii HPA74510 selected after 4 times MIC compound exposure; format: functional
[9] = test system: Enterobacter cloacae; assay: Antimicrobial activity against Enterobacter cloacae S4741B assessed as log reduction in colony count after 24 hrs; format: functional
[10] = Inhibition of Pseudomonas aeruginosa 18S/H beta-lactamase class C
[11] = Inhibition of Pseudomonas aeruginosa 143724R beta-lactamase class C
[12] = Inhibition of Escherichia coli Penicillin-binding protein 3
[13] = test system: Pseudomonas aeruginosa; assay: Microbicidal activity against Pseudomonas aeruginosa (560546)9 M.P. selected after MIC of compound exposure; format: functional
[14] = test system: Enterobacter cloacae; assay: Antimicrobial activity against Enterobacter cloacae S4741B by broth dilution method; format: functional
[15] = test system: Pseudomonas aeruginosa; assay: Antimicrobial activity against Pseudomonas aeruginosa BA(C2-107) mutant assessed as doubling time; format: functional
[16] = test system: Pseudomonas aeruginosa; assay: Antimicrobial activity against Pseudomonas aeruginosa HPA10586 by broth dilution method; format: functional
[17] = test system: Pseudomonas aeruginosa; assay: Antimicrobial activity against Pseudomonas aeruginosa BA assessed as doubling time; format: functional
[18] = test system: Enterobacter cloacae; assay: Antimicrobial activity against Enterobacter cloacae S9369 by broth dilution method; format: functional
[19] = test system: Pseudomonas aeruginosa; assay: Microbicidal activity against Pseudomonas aeruginosa BA selected after 4 times MIC compound exposure; format: functional
[20] = test system: Pseudomonas aeruginosa; assay: Antimicrobial activity against Pseudomonas aeruginosa 621 by broth dilution method; format: functional
[21] = test system: Acinetobacter baumannii; assay: Antimicrobial activity against Acinetobacter baumannii HPA74510 selected after 4 times MIC compound exposure; format: functional

CC1(C)[C@H](NC(=O)/C(=N\OCc2cc(=O)c(O)cn2O)c2csc(N)n2)C(=O)N1OS(=O)(=O)O (stereo in doubt)
Activity [1]: 8 mg/L | IC50 [2]: 4.6 µM | Activity [3]: 1 mg/L | IC50 [4]: 3.9 µM | IC50 [5]: > 500 µM | MBC [6]: 8 µg/mL (≈ 15.4 µM) | Activity [7]: Active | MBC [8]: 0.5 µg/mL (≈ 0.964 µM) | FC [9]: 3 | IC50 [10]: 28 µM | IC50 [11]: 27 µM | IC50 [12]: 0.048 µM

C[C@@H](O)[C@H]1C(=O)N2C(C(=O)O)=C(S[C@@H]3CN[C@H](C(=O)N(C)C)C3)[C@H](C)[C@H]12 [MEROPENEM]
MBC [13]: 2 µg/mL | MIC [14]: 1 µg/mL (≈ 2.61 µM) | Time [15]: 4.1 h | MIC [16]: > 128 µg/mL | Time [17]: 1.5 h | MIC [18]: 4 µg/mL (≈ 10.4 µM) | MBC [19]: 2 µg/mL (≈ 5.22 µM) | MIC [20]: 0.125 µg/mL (≈ 0.326 µM) | MIC [21]: > 128 µg/mL
